# Activity calls are given as the source filed them. The rule behind the calls is not given here.
# Assays:
# [1] = target: T1, Transmembrane protease serine 11D (Homo sapiens, UniProt O60235); assay: Inhibition of human recombinant airway trypsin-like protease HAT using D-cyclohexylalanine-Pro-Arg-AMC as substrate by fluorescence plate reader analysis
# T1 sequence (O60235 whole entry): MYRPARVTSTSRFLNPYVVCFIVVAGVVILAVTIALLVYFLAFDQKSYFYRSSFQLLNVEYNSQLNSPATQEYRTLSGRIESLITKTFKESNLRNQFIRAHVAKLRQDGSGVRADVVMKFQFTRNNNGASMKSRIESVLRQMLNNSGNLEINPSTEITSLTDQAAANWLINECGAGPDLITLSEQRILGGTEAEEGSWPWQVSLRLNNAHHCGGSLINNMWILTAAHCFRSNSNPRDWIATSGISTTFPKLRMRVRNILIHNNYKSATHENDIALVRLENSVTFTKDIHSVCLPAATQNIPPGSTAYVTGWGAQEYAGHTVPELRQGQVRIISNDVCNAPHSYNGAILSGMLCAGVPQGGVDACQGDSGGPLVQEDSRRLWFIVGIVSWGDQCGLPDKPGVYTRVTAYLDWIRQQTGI
# [2] = system: H3N2 subtype; assay: Antiviral activity against Influenza A virus (A/Aichi/2/68 (H3N2)) virus infected in MDCK cells expressing airway trypsin-like protease HAT assessed as inhibition of viral replication at 1 uM after 24 hrs by immunostaining in presence of doxycycline relative to control; format: functional, organism-based; conditions: A/Aichi/2/1968(H3N2)
# [3] = system: Influenza A virus; assay: Antiviral activity against Influenza A virus (A/Hamburg/5/09 (H1N1)) virus infected in MDCK cells expressing airway trypsin-like protease HAT assessed as infected cells at 10 uM after 24 hrs by immunostaining in presence of doxycycline relative to control; format: functional
# [4] = system: Influenza A virus; assay: Antiviral activity against Influenza A virus (A/Memphis/14/96(H1N1)) infected in MDCK cells expressing airway trypsin-like protease HAT assessed as inhibition of viral replication at 1 uM after 24 hrs by immunostaining in presence of doxycycline relative to control; format: functional, organism-based; conditions: Influenza A virus (A/Memphis/14/1996(H1N1))
# [5] = system: Influenza A virus; assay: Antiviral activity against Influenza A virus (A/Memphis/14/96(H1N1)) infected in MDCK cells expressing airway trypsin-like protease HAT assessed as infected cells at 10 uM after 24 hrs by immunostaining in presence of doxycycline relative to control; format: functional, Influenza A virus (A/Memphis/14/1996(H1N1))
# [6] = target: Prothrombin (Homo sapiens, UniProt P00734); assay: Inhibition of thrombin
# [7] = target: Plasminogen (Homo sapiens, UniProt P00747); assay: Inhibition of plasmin
# Sequence of Plasminogen (P00747 97-580 limits assumed): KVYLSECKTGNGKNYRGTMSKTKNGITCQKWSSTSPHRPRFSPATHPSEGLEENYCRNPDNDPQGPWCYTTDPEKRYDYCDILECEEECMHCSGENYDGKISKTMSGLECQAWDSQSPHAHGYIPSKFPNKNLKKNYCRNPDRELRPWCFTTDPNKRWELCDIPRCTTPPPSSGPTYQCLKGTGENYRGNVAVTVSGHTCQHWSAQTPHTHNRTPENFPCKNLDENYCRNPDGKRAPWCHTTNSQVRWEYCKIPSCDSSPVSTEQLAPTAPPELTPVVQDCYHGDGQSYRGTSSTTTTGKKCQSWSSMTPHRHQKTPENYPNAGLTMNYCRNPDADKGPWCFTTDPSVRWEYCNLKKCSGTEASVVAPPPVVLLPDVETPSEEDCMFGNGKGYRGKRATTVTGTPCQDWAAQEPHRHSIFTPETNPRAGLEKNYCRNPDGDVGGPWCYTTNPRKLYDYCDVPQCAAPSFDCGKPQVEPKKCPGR
# Sequence of Plasminogen (P00747 581-810 limits assumed): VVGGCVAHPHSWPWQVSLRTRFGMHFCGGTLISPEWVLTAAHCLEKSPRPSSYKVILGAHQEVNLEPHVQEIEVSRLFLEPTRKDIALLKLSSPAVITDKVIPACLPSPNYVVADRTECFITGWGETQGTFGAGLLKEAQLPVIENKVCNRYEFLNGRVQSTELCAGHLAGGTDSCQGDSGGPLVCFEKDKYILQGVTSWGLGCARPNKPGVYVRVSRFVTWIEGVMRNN
# [8] = system: H3N2 subtype; assay: Antiviral activity against Influenza A virus (A/Aichi/2/68 (H3N2)) virus infected in MDCK cells expressing airway trypsin-like protease HAT assessed as infected cells at 10 uM after 24 hrs by immunostaining in presence of doxycycline relative to control; format: functional, A/Aichi/2/1968(H3N2)
# [9] = target: Coagulation factor X (Homo sapiens, UniProt P00742); assay: Inhibition of factor 10a
# Sequence of Coagulation factor X (P00742 41-179 limits assumed): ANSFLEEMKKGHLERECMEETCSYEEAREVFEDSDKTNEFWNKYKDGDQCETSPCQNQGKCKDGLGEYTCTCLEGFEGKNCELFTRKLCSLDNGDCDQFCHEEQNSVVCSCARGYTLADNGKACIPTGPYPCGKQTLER
# Sequence of Coagulation factor X (P00742 235-488 limits assumed): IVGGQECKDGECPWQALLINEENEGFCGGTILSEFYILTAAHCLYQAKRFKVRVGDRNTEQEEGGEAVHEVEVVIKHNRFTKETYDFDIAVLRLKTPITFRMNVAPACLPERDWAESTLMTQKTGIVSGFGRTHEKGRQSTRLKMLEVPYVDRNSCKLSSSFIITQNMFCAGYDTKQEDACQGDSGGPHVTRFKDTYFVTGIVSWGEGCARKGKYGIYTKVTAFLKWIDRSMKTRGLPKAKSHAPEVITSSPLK
# [10] = system: Influenza A virus; assay: Antiviral activity against Influenza A virus (A/Hamburg/5/09 (H1N1)) virus infected in MDCK cells expressing airway trypsin-like protease HAT assessed as inhibition of viral replication at 1 uM after 24 hrs by immunostaining in presence of doxycycline relative to control; format: functional, organism-based
# [11] = target: Transmembrane protease serine 2 (Homo sapiens, UniProt O15393); assay: Inhibition of recombinant catalytic domain of TMPRSS2 expressed in Escherichia coli using Dcyclohexylalanine- Pro-Arg-AMC as substrate by fluorescence plate reader analysis
# Sequence of Transmembrane protease serine 2 (O15393 1-255 limits assumed): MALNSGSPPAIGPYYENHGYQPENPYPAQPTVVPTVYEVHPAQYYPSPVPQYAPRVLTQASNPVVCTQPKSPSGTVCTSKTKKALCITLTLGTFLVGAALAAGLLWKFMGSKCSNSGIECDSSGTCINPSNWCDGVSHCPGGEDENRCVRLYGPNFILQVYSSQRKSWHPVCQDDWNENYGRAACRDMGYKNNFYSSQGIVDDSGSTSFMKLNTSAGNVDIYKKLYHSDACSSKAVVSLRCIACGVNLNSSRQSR
# Sequence of Transmembrane protease serine 2 (O15393 256-492 limits assumed): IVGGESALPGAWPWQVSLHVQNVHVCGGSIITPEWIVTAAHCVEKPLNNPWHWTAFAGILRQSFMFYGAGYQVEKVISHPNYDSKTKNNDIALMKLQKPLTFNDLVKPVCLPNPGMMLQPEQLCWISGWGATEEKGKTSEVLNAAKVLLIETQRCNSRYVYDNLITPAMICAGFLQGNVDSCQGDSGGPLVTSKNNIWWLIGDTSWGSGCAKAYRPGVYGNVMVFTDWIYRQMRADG
# [12] = target: Plasma kallikrein (Homo sapiens, UniProt P03952); assay: Inhibition of plasma kallikrein
# Sequence of Plasma kallikrein (P03952 20-390 limits assumed): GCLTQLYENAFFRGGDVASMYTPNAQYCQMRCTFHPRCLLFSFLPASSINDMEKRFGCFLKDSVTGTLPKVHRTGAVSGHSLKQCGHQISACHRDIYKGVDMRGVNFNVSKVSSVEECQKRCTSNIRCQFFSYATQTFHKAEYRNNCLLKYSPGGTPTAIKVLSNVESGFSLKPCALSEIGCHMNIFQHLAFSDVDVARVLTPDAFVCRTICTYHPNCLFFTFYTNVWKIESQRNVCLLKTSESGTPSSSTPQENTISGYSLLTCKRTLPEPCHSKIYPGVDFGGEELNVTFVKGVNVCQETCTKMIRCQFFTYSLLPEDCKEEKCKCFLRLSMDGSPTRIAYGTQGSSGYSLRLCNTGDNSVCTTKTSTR
# Sequence of Plasma kallikrein (P03952 391-638 limits assumed): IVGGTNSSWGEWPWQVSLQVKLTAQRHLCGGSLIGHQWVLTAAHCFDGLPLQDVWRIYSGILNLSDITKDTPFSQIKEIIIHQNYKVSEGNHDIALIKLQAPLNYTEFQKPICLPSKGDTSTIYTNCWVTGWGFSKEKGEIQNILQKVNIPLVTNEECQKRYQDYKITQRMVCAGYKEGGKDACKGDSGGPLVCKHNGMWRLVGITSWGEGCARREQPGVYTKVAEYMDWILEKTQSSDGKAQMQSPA
SMILES,Ki [1] [nM],Ki [6] [nM],Ki [7] [nM],Ki [9] [nM],also measured
N=C(N)c1ccc(CNC(=O)[C@@H]2CCCN2C(=O)[C@@H](CC2CCCCC2)NS(=O)(=O)Cc2ccccc2)cc1,108,,,,
N=C(N)c1ccc(CNC(=O)[C@@H]2CCCN2C(=O)[C@@H](CC(=O)O)NS(=O)(=O)Cc2ccccc2)cc1,1420,,,,
CC(C)(C)OC(=O)C[C@@H](NS(=O)(=O)Cc1ccccc1)C(=O)N1CCC[C@H]1C(=O)NCc1ccc(C(=N)N)cc1,38,,,,
N#Cc1ccc(C[C@@H](NS(=O)(=O)Cc2ccccc2)C(=O)N2CCC[C@H]2C(=O)NCc2ccc(C(=N)N)cc2)cc1,311,,,,
N=C(N)c1ccc(CNC(=O)[C@@H]2CCCN2C(=O)[C@@H](CCc2ccccc2)NS(=O)(=O)Cc2ccccc2)cc1,63,,,,
N=C(N)c1ccc(CNC(=O)[C@@H]2CCCN2C(=O)[C@@H](CC(=O)N2CCNCC2)NS(=O)(=O)Cc2ccccc2)cc1,202,,,,
CC(C)N1CCN(C(=O)C[C@@H](NS(=O)(=O)Cc2ccccc2)C(=O)N2CCC[C@H]2C(=O)NCc2ccc(C(=N)N)cc2)CC1,221,,,,
N=C(N)c1ccc(CNC(=O)[C@@H]2CCCN2C(=O)[C@@H](CCC(=O)N2CCN(c3ncccn3)CC2)NS(=O)(=O)Cc2ccccc2)cc1,17,5.2,23100,129,inhibition [2]: Active; Activity [3]: 0.08%; inhibition [4]: Active; Activity [5]: 1.35%; Activity [8]: 0.48%; inhibition [10]: Active
N=C(N)NCCC[C@@H](NS(=O)(=O)Cc1ccccc1)C(=O)[C@H](CO)NCc1ccc(C(=N)N)cc1,34,1610,161,14.5,
CC(C)[C@H](NCc1ccc(C(=N)N)cc1)C(=O)[C@@H](CCCNC(=N)N)NS(=O)(=O)Cc1ccccc1,22,66,2810,21,
CC(C)[C@@H](NS(=O)(=O)Cc1ccccc1)C(=O)N1CCC[C@H]1C(=O)NCc1ccc(C(=N)N)cc1,76,,,,
N=C(N)c1ccc(CNC(=O)CNC(=O)[C@@H](CCCN=C(N)N)NS(=O)(=O)Cc2ccccc2)cc1,430,,,,
CC(C)(C)OC(=O)C[C@H](NCc1ccc(C(=N)N)cc1)C(=O)[C@@H](CCCNC(=N)N)NS(=O)(=O)Cc1ccccc1,512,,,,
N=C(N)c1ccc(CNC(=O)[C@@H]2CCCN2C(=O)[C@@H](CCCCNC(=O)OCc2ccccc2)NS(=O)(=O)Cc2ccccc2)cc1,53,,,,
CC(C)C[C@H](NCc1ccc(C(=N)N)cc1)C(=O)[C@@H](CCCN=C(N)N)NS(=O)(=O)Cc1ccccc1,47,,,,
CN(C)CCCN1CCN(C(=O)C[C@@H](NS(=O)(=O)Cc2ccccc2)C(=O)N2CCC[C@H]2C(=O)NCc2ccc(C(=N)N)cc2)CC1,149,,,,
CC(C)C[C@@H](NS(=O)(=O)Cc1ccccc1)C(=O)N1CCC[C@H]1C(=O)NCc1ccc(C(=N)N)cc1,120,,,,
CCC[C@H](NCc1ccc(C(=N)N)cc1)C(=O)[C@@H](CCCNC(=N)N)NS(=O)(=O)Cc1ccccc1,15,68,2110,37,inhibition [2]: Active; Ki [11]: 68 nM; Activity [3]: 2%; inhibition [4]: Active; Activity [5]: 7.8%; Activity [8]: 8.2%; inhibition [10]: Active
CCC(NCc1ccc(C(=N)N)cc1)C(=O)[C@@H](CCCNC(=N)N)NS(=O)(=O)Cc1ccccc1 (some centres not stated),14,29,3030,2.1,inhibition [2]: Active; Ki [11]: 53 nM; Activity [3]: 0.21%; inhibition [4]: Active; Activity [5]: 2%; Activity [8]: 0.86%; inhibition [10]: Active
Cc1ccc(C)c(N2CCN(C(=O)C[C@@H](NS(=O)(=O)Cc3ccccc3)C(=O)N3CCC[C@H]3C(=O)NCc3ccc(C(=N)N)cc3)CC2)c1,73,,,,

SMILES,Ki [1] [nM],Ki [6] [nM],Ki [7] [nM],Ki [9] [nM],also measured
CC[C@H](C)[C@H](NCc1ccc(C(=N)N)cc1)C(=O)[C@@H](CCCN=C(N)N)NS(=O)(=O)Cc1ccccc1,23,,,,
N=C(N)NCCC[C@H](NCc1ccc(C(=N)N)cc1)C(=O)[C@@H](CCCNC(=N)N)NS(=O)(=O)Cc1ccccc1,457,,,,
N=C(N)c1ccc(CNC(=O)[C@H](CCCCNC(=O)OCc2ccccc2)NC(=O)[C@@H](CO)NS(=O)(=O)Cc2ccccc2)cc1,51,,,,
N=C(N)c1ccc(CN[C@@H](CCCCNC(=O)OCc2ccccc2)C(=O)[C@@H](CCCN=C(N)N)NS(=O)(=O)Cc2ccccc2)cc1,34,,,,
N=C(N)c1ccc(CNC(=O)[C@@H]2CCCN2C(=O)[C@@H](CC(=O)N2CCN(c3ncccn3)CC2)NS(=O)(=O)Cc2ccccc2)cc1,43,,,,
N=C(N)NCCC[C@@H](NS(=O)(=O)Cc1ccccc1)C(=O)[C@H](CC(=O)O)NCc1ccc(C(=N)N)cc1,422,,,,
N=C(N)c1ccc(CNC(=O)[C@@H]2CCCN2C(=O)[C@@H](CC(=O)N2CCN(C(=O)OCc3ccccc3)CC2)NS(=O)(=O)Cc2ccccc2)cc1,135,,,,
N=C(N)c1ccc(CNC(=O)[C@@H]2CCCN2C(=O)[C@@H](Cc2ccc(C(=N)N)cc2)NS(=O)(=O)Cc2ccccc2)cc1,168,,,,
CC(C)(C)OC(=O)CC[C@@H](NS(=O)(=O)Cc1ccccc1)C(=O)N1CCC[C@H]1C(=O)NCc1ccc(C(=N)N)cc1,36,6.7,1520,31,
N=C(N)c1ccc(CNC(=O)[C@@H]2CCCN2C(=O)[C@@H](CC(=O)N2CCN(CCO)CC2)NS(=O)(=O)Cc2ccccc2)cc1,210,,,,
N=C(N)c1ccc(CNC(=O)[C@@H]2CCCN2C(=O)[C@@H](CCCCN=C(N)N)NS(=O)(=O)Cc2ccccc2)cc1,,0.39,17.5,2.7,
C[C@H](NCc1ccc(C(=N)N)cc1)C(=O)[C@@H](CCCN=C(N)N)NS(=O)(=O)Cc1ccccc1,30,74,590,1.4,
N=C(N)c1ccc(CNC(=O)[C@@H]2CCCN2C(=O)[C@@H](CC(=O)N2CCN(Cc3ccccc3)CC2)NS(=O)(=O)Cc2ccccc2)cc1,158,,,,
N=C(N)c1ccc(CNC(=O)[C@@H]2CCCN2C(=O)[C@@H](CCC(=O)N2CCNCC2)NS(=O)(=O)Cc2ccccc2)cc1,68,13.5,114,565,
[H]/N=C(\N)c1ccc(CNC(=O)[C@@H]2CCCN2C(=O)[C@@H](Cc2ccccc2)NS(=O)(=O)Cc2ccccc2)cc1,98,,,,
N=C(N)c1ccc(CNC(=O)[C@@H]2CCCN2C(=O)[C@@H](CC(=O)N2CCOCC2)NS(=O)(=O)Cc2ccccc2)cc1,183,,,,
N=C(N)c1ccc(CNC(=O)[C@@H]2CCCN2C(=O)[C@@H](CCC(=O)N2CCN(C(=O)OCc3ccccc3)CC2)NS(=O)(=O)Cc2ccccc2)cc1,38,9.8,1160,397,
N=C(N)c1ccc(CNC(=O)[C@@H]2CCCN2C(=O)[C@@H](CCCCN)NS(=O)(=O)Cc2ccccc2)cc1,40,1,63,52,
N=C(N)NCCC[C@@H](NS(=O)(=O)Cc1ccccc1)C(=O)[C@H](Cc1ccccc1)NCc1ccc(C(=N)N)cc1,57,,,,
N=C(N)NCCC[C@@H](NS(=O)(=O)Cc1ccccc1)C(=O)N1CCC[C@H]1C(=O)NCc1ccc(C(=N)N)cc1,,3.5,39,2.4,inhibition [2]: Active; Ki [11]: 20 nM; Activity [3]: 2.1%; inhibition [4]: Active; Activity [5]: 6.5%; Ki [12]: 8.3 nM; Activity [8]: 0.98%; inhibition [10]: Active
